{
  "source": "patent US6169116A",
  "about": "“Amino-tetralines, pharmaceutical compositions containing them and their pharmaceutical uses” (Novartis AG, priority 1995, dated 2001)",
  "key": {"[1]": {"system": "ischemia-induced neuronal damage (infarct size)", "test": "middle cerebral artery (MCA) occlusion model in rats", "assay_type": "in vivo", "procedure": "Furthermore, the agents of the invention reduce ischemia-induced neuronal damage and ensuing symptoms in the middle cerebral artery (MCA) occlusion model in rats at a dosage of 1-30 mg/kg i.p, i.v. and p.o. [cf. A. Tamura et al., J. Cereb. Blood Flow Metabol. 1, 53-60 (1981)), A. Sauter, M. Rudin, Stroke 17, 1228-1234 (1986)].\n(§1) For all these indications the preferred compound is (R)-1,2,3,4-tetrahydro-8-methoxy-N,N-dimethyl-5-[4-(trifluoromethyl)phenyl]-2-naphthaleneamine, which is the compound of example 21. It has for example been determined that in the above mentioned electroshock model, this compound provides protection against maximal electroshock-induced convulsions with a threshold dose of 10 mg/kg p.o. for periods up to 8 hours post-administration."}, "[2]": {"system": "veratridine-induced glutamate release in rat hippocampal slice preparations", "test": "veratridine-induced glutamate release in rat hippocampal slice preparations", "assay_type": "cell-based", "settings": "for pIC50: Rattus norvegicus, read-out: IC50, block of veratridine-induced glutamate release", "procedure": "(§2) The agents of the invention display binding to the veratridine-sensitive sodium channel with IC50 S of from about 0.1 to about 100 μM. For the binding procedure see for example J. B. Brown, Journal of Neuroscience 6, 2064-2070 (1986). They block veratridine-induced glutamate release in rat hippocampal slice preparations at concentrations of about 0.1-1 μM.\nThe experiment is performed according to a modification of M. J. Leach et al. in Epilepsia 27, 490-497 (1986) and Stroke 24, 1063-1067 (1993), using exogenous glutamate."}, "[3]": {"system": "maximal electroshock-induced convulsions", "test": "protection against maximal electroshock-induced convulsions in mice", "assay_type": "in vivo", "procedure": "The agents of the invention provide long-lasting protection against maximal electroshock-induced convulsions in mice at doses of about 1 to 100 mg/kg p.o. and about 0.32 to 32 mg/kg i.p. [cf. E. A. Swinyard, J. Am. Pharm. Assoc. Scient. Ed. 38, 201 (1949) and J. Pharmacol. Exptl. Therap. 106, 319 (1952)].\nas §1"}, "[4]": {"molecular_target": "veratridine-sensitive sodium channel", "test": "binding to the veratridine-sensitive sodium channel", "settings": "read-out: IC50, affinity for the veratridine binding site", "procedure": "as §2"}, "[5]": {"settings": "10 mg/kg i.p., immediately after occlusion"}},
  "note": "pIC50: −log10 of the molar value.",
  "data": [
    {"smiles": "Cc1ccc(-c2nc(C)c(CN3CCN(C(c4ccccc4)c4ccccc4)CC3)[nH]2)cc1", "note": "[Lifarizine, reference compound]", "values": [
      {"measurement": "infarct size reduction", "setting": "[1]; [5]", "value": 25, "unit": "%"}
    ]},
    {"smiles": "Nc1nnc(-c2cccc(Cl)c2Cl)c(N)n1", "note": "[Lamotrigine, reference compound]", "values": [
      {"measurement": "pIC50", "setting": "[2]", "value": 4.70}
    ]},
    {"smiles": "Nc1nc2ccc(OC(F)(F)F)cc2s1", "note": "[Riluzole, reference compound]", "values": [
      {"measurement": "pIC50", "setting": "[2]", "value": 5.30}
    ]},
    {"smiles": "COc1ccc(-c2ccc(C(F)(F)F)cc2)c2c1C[C@H](N(C)C)CC2", "note": "[Example 21, (R)-1,2,3,4-tetrahydro-8-methoxy-N,N-dimethyl-5-[4-(trifluoromethyl)phenyl]-2-naphthaleneamine]", "values": [
      {"measurement": "pIC50", "setting": "[2]", "value": 6.30},
      {"measurement": "potency relative to Lifarizine in the veratridine-induced glutamate release test", "setting": "[2]; compared with Lifarizine", "value": "about equipotent to Lifarizine"},
      {"measurement": "infarct size reduction", "setting": "[1]; 3.2 mg/kg i.p. immediately after occlusion", "value": 19, "unit": "%"},
      {"measurement": "infarct size reduction", "setting": "[1]; [5]", "value": 43, "unit": "%"},
      {"measurement": "infarct size reduction", "setting": "[1]; 32 mg/kg i.p. immediately after occlusion", "value": 53, "unit": "%"},
      {"measurement": "minimal effective dose", "setting": "[3]; Mus musculus, po, read-out: threshold dose for protection against maximal electroshock-induced convulsions", "value": 10, "unit": "mg/kg"},
      {"measurement": "period of protection against maximal electroshock-induced convulsions post-administration", "setting": "[3]; p.o., threshold dose 10 mg/kg", "value": "up to 8 hours"},
      {"measurement": "pIC50", "setting": "[4]", "value": 6.90}
    ]}
  ]
}
